Measured values taken from US8853242B2, “Nitrogenous-ring acylguanidine derivative” (Astellas Pharma Inc., priority 2009, dated 2014).

biological target: human 5-HT5A receptor (Homo sapiens (Human), UniProt P47898); assay: Test on a human 5-HT5A receptor binding inhibition ([3H]5-CT); settings: [3H]5-CT binding inhibition, membrane from HEK293 cells expressing human 5-HT5A receptor; Ki calculated from IC50
Protocol: The ORF (open reading frame; protein coding region) of a human 5-HT5A receptor (Genbank AF498985) was cloned from a human hippocampus cDNA library, and then inserted into a pCR2.1 vector (Invitrogen), and Escherichia coli containing the plasmid was cultured in a large amount. Next, the full-length cDNA sequence of the human 5-HT5A receptor was analyzed, and recombined into a pCDNA3.1 vector (Invitrogen) as an expression vector and cultured in a large amount. HEK293 established cells (ATCC) derived from the human fetal kidney were seeded, the expression plasmid (1 μg) obtained above were added thereto with LIPOFECTAMINE 2000 (Invitrogen; 2 μl), the gene was transfected into HEK293 cells, and the expression cells were screened with a drug-resistant marker, Geneticin (G418 sulfate 500 μg/ml; Kanto Chemical Co., Inc.). Thus prepared recombinant cells which expressed the gene were cultured in a medium containing D-MEM (Dulbecco's modified eagle medium, Sigma), 10% FCS (Fetal calf serum: fetal bovine serum), 1% Pc./Sm (Penicillin/Streptomycin, Invitrogen), and 500 μg/ml G418 for 3 days. These experimental operations followed a manual for gene operation experiment and an instruction appended in a reagent, and the like, such as a known method (Sambrook, J. et al, Molecular Cloning-A Laboratory Manual”, Cold Spring Harabor laboratory, NY, 1989).
HEK293 cells for forced expressions of a human 5-HT5A receptor were cultured in a F500 plate, and scraped with a scraper. After centrifugation, the precipitate was collected, and an incubation buffer (50 mM Tris (HCl) (pH 7.4), 10 mM MgSO4, and 0.5 mM EDTA (ethylenediamine tetraacetic acid)) was added thereto. After homogenization, it was further centrifuged, and the incubation buffer was added to the precipitate, followed by thoroughly suspending. The operation was repeated, and protein concentration was measured, thereby completing preparation of the membrane.
A solution of the compound to be tested and 100 μM 5-CT (5-carboxamidetriptamine) in DMSO was added to a 96-well plate at 2 μl/well, suspended in an incubation buffer, and a membrane from HEK293 cells for forced expressions of a human 5-HT5A receptor prepared at 200 μg/ml was added at 100 μl/well. After incubation at room temperature for 15 minutes, a [^3H]5-CT solution (2 nM [^3H]5-CT, incubation buffer) was added thereto at 100 μl/well.
Separately, 100 μl of the solution was distributed into a liquid scintillation vial, and 2 ml of Aquasol II (registered trademark) was added thereto, followed by stirring. Then, radioactivity was measured by a liquid scintillation counter. It was incubated at 37° C. for 60 minutes. The reaction mixture was sucked into 96-well GF/C filter plate that had been pre-treated with 0.2% polyethyleneimine, and washed six times with an ice-cooled, 50 mM Tris (pH 7.5) buffer. The GF/C filter plate was dried.
Microscint TMPS (registered trademark) was added thereto at 40 μl/well. Radioactivity remaining on the GF/C filter plate was measured by a top counter.
The [^3H]5-CT binding inhibiting activity by the compound to be tested in each experiment was determined as an IC50 value with a radioactivity upon addition of DMSO alone being 0% inhibition, and a radioactivity upon addition of 1 μM 5-CT being 100% inhibition. Separately, Ki values were calculated from the Kd value of the [^3H]5-CT determined from Scatchard analysis, by the following equation. Ki=IC50(1+Concentraion of ligand added/Kd(4.95 nM))

human 5-HT5A receptor, sequence (P47898 whole entry): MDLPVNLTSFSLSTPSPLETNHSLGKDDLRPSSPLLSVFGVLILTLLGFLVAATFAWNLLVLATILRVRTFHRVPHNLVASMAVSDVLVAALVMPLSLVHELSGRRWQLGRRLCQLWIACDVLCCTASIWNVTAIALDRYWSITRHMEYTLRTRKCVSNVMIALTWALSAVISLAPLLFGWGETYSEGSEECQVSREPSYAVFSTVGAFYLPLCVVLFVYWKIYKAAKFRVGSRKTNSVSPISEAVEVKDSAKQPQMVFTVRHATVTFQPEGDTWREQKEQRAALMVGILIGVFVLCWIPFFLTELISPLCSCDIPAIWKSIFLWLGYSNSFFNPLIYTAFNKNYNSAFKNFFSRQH

SMILES | Ki [µM]
NC(N)=NC(=O)c1ccc2c(F)cnc(-c3ccccc3Cl)c2c1 [Example 161] | 0.0034
NC(N)=NC(=O)c1ccc2c(Cl)cnc(-c3c(F)cccc3F)c2c1 [Example 162] | 0.0012
Cc1cnc(-c2c(F)cccc2F)c2cc(C(=O)N=C(N)N)ccc12 [Example 170] | 0.0019
Cc1cc(-c2c(F)cc(F)cc2F)c2cc(C(=O)N=C(N)N)ccc2n1 [Example 6] | 0.013
NC(N)=NC(=O)c1ccc2c(F)cnc(-c3c(F)cccc3Cl)c2c1 [Example 147] | 0.0016

same assay, conditions: [3H]5-CT binding, membrane from HEK293 cells expressing human 5-HT5A receptor; Ki calculated from IC50

SMILES | Ki [µM]
Cc1nc2ccc(C(=O)N=C(N)N)cc2c(-c2ccccc2F)c1F [Example 125] | 0.01 to 0.1
NC(N)=NC(=O)c1ccc2ncc(C(F)(F)F)c(-c3ccc(F)cc3F)c2c1 [Example 86] | 0.01 to 0.1
COc1ccc(F)c(-c2ccnc3c(C)cc(C(=O)N=C(N)N)cc23)c1F [Example 78] | 0.01 to 0.1
Cc1cnc2ccc(C(=O)N=C(N)N)cc2c1-c1c(F)cc(F)cc1F [Example 17] | 0.001 to 0.01
Cc1ccc(-c2ccnc3c(C)cc(C(=O)N=C(N)N)cc23)c(F)c1 [Example 68] | 0.01 to 0.1
NC(N)=NC(=O)c1ccc2c(F)cnc(-c3c(F)cc(F)cc3F)c2c1 [Example 144] | 0.001 to 0.01
Cc1nc2ccc(C(=O)N=C(N)N)cc2c(-c2c(F)cccc2F)c1C [Example 117] | 0.001 to 0.01
COc1ccc(-c2c(Cl)cnc3ccc(C(=O)N=C(N)N)cc23)cc1 [Example 93] | 0.001 to 0.01
COc1cc(C#N)ccc1-c1ccnc2ccc(C(=O)N=C(N)N)cc12 [Example 36] | 0.01 to 0.1
Cc1cc(C(=O)N=C(N)N)cc2c(-c3ccccc3F)c(Cl)cnc12 [Example 101] | 0.001 to 0.01
Cc1cc2ccc(C(=O)N=C(N)N)cc2c(-c2c(F)cccc2F)n1 [Example 155] | 0.01 to 0.1
NC(N)=NC(=O)c1ccc2nccc(-c3c(F)cccc3Cl)c2c1 [Example 11] | 0.001 to 0.01
N#Cc1ccccc1-c1ccnc2ccc(C(=O)N=C(N)N)cc12 [Example 12] | 0.1 to 0.3
NC(N)=NC(=O)c1ccc2c(F)cnc(-c3ccncc3Cl)c2c1 [Example 163] | 0.01 to 0.1
NC(N)=NC(=O)c1ccc2c(F)cnc(-c3ccccc3Cl)c2c1 [Example 161] | 0.001 to 0.01
NC(N)=NC(=O)c1ccc2ccnc(-c3ccccc3)c2c1 [Example 133] | 0.01 to 0.1
NC(N)=NC(=O)c1ccc2nccc(-c3c(F)cncc3F)c2c1 [Example 52] | 0.01 to 0.1
Cc1cnc2ccc(C(=O)N=C(N)N)cc2c1-c1ccc(F)cc1F [Example 31] | 0.001 to 0.01
Cc1cc(-c2ccc(F)cc2F)c2cc(C(=O)N=C(N)N)cc(C)c2n1 [Example 85] | 0.001 to 0.01
Cc1cc(C(=O)N=C(N)N)cc2c(-c3c(Cl)cccc3Cl)ccnc12 [Example 55] | 0.001 to 0.01
Cc1cnc2ccc(C(=O)N=C(N)N)cc2c1-c1cccc(Cl)c1Cl [Example 24] | 0.001 to 0.01
CCc1cnc(-c2c(F)cccc2F)c2cc(C(=O)N=C(N)N)ccc12 [Example 172] | 0.001 to 0.01
Cc1nc2ccc(C(=O)N=C(N)N)cc2c(-c2c(F)cccc2Cl)c1C [Example 121] | 0.001 to 0.01

SMILES | Ki [µM]
NC(N)=NC(=O)c1ccc2nccc(-c3cc(Cl)ccc3F)c2c1 [Example 22] | 0.01 to 0.1
NC(N)=NC(=O)c1cc(F)c2nccc(-c3c(F)cc(F)cc3F)c2c1 [Example 54] | 0.01 to 0.1
COc1ccc(-c2ccnc3c(C)cc(C(=O)N=C(N)N)cc23)c(Cl)c1 [Example 70] | 0.001 to 0.01
NC(N)=NC(=O)c1ccc2nccc(-c3ccc(F)cc3Cl)c2c1 [Example 15] | 0.001 to 0.01
NC(N)=NC(=O)c1ccc2nccc(-c3ccc(Cl)cc3F)c2c1 [Example 14] | 0.01 to 0.1
NC(N)=NC(=O)c1ccc2ccnc(-c3ccc(Cl)cc3Cl)c2c1 [Example 138] | 0.001 to 0.01
Cc1nc2ccc(C(=O)N=C(N)N)cc2c(-c2ccc(F)cc2F)c1Cl [Example 88] | 0.001 to 0.01
NC(N)=NC(=O)c1ccc2nccc(-c3c(F)cc(Cl)cc3F)c2c1 [Example 13] | 0.001 to 0.01
NC(N)=NC(=O)c1ccc2c(Cl)cnc(-c3cccc(Cl)c3Cl)c2c1 [Example 100] | 0.01 to 0.1
Cc1cc(C(=O)N=C(N)N)cc2c(-c3ccc(Cl)cc3F)ccnc12 [Example 67] | 0.001 to 0.01
Cc1nc2ccc(C(=O)N=C(N)N)cc2c(-c2ccc(F)cc2)c1C [Example 118] | 0.01 to 0.1
N#Cc1cnc(-c2c(F)cc(F)cc2F)c2cc(C(=O)N=C(N)N)ccc12 [Example 143] | 0.01 to 0.1
COc1cc(F)ccc1-c1ncc(Cl)c2ccc(C(=O)N=C(N)N)cc12 [Example 174] | 0.01 to 0.1
NC(N)=NC(=O)c1ccc2c(Cl)cnc(C3CC3)c2c1 [Example 198] | 0.001 to 0.01
Cc1nc2ccc(C(=O)N=C(N)N)cc2c(-c2ccccc2F)c1C [Example 105] | 0.01 to 0.1
NC(N)=NC(=O)c1ccc2c(Cl)cnc(-c3ccc(Cl)cc3F)c2c1 [Example 195] | 0.001 to 0.01
NC(N)=NC(=O)c1ccc2c(Cl)cnc(-c3ccncc3F)c2c1 [Example 173] | 0.01 to 0.1
Cc1nc(-c2c(F)cc(F)cc2F)c2cc(C(=O)N=C(N)N)ccc2c1F [Example 154] | 0.001 to 0.01
CC(C)c1cnc(-c2c(F)cccc2F)c2cc(C(=O)N=C(N)N)ccc12 [Example 158] | 0.01 to 0.1
Cc1cc(-c2c(F)cc(F)cc2F)c2cc(C(=O)N=C(N)N)ccc2n1 [Example 6] | 0.01 to 0.1
Cc1cc(C(=O)N=C(N)N)cc2c(-c3ccc(F)cc3F)ccnc12 [Example 44] | 0.001 to 0.01
COc1cccc(Cl)c1-c1ncc(F)c2ccc(C(=O)N=C(N)N)cc12 [Example 203] | 0.001 to 0.01
NC(N)=NC(=O)c1ccc2nccc(-c3cccc(C(F)(F)F)c3F)c2c1 [Example 28] | 0.01 to 0.1

SMILES | Ki [µM]
N#Cc1cc(Cl)ccc1-c1nccc2ccc(C(=O)N=C(N)N)cc12 [Example 140] | 0.01 to 0.1
NC(N)=NC(=O)c1ccc2c(F)cnc(-c3cccc(Cl)c3F)c2c1 [Example 201] | 0.001 to 0.01
Cc1cc(-c2c(F)cc(F)cc2Cl)c2cc(C(=O)N=C(N)N)ccc2n1 [Example 124] | 0.01 to 0.1
NC(N)=NC(=O)c1ccc2c(Cl)cnc(-c3cc(F)c(F)cc3F)c2c1 [Example 212] | 0.01 to 0.1
NC(N)=NC(=O)c1cnc2cccc(-c3c(F)cc(F)cc3F)c2c1 [Example 227] | 0.01 to 0.1
Cc1nc2ccc(C(=O)N=C(N)N)cc2c(-c2ccc(F)cc2Cl)c1Cl [Example 132] | 0.001 to 0.01
Cc1cc(C(=O)N=C(N)N)cc2c(-c3c(F)cc(F)cc3F)ccnc12 [Example 39] | 0.001 to 0.01
Cc1nc2ccc(C(=O)N=C(N)N)cc2c(-c2ccccc2Cl)c1Cl [Example 130] | 0.001 to 0.01
NC(N)=NC(=O)c1ccc2c(C(F)F)cnc(-c3ccccc3F)c2c1 [Example 215] | 0.01 to 0.1
COc1ncccc1-c1c(Cl)cnc2ccc(C(=O)N=C(N)N)cc12 [Example 106] | 0.01 to 0.1
Cc1cc(C(=O)N=C(N)N)cc2c(C3=CCCC3)ccnc12 [Example 75] | 0.01 to 0.1
NC(N)=NC(=O)c1ccc2nccc(-c3cc(C(F)(F)F)ccc3F)c2c1 [Example 25] | 0.01 to 0.1
NC(N)=NC(=O)c1ccc2c(Cl)cnc(-c3c(F)cc(F)cc3F)c2c1 [Example 142] | 0.001 to 0.01
NC(N)=NC(=O)c1ccc2nccc(C3=CCCCC3)c2c1 [Example 62] | 0.001 to 0.01
NC(N)=NC(=O)c1ccc2nccc(-c3cc(F)ccc3Cl)c2c1 [Example 63] | 0.01 to 0.1
NC(N)=NC(=O)c1ccc2nccc(-c3c(F)cc(F)cc3F)c2c1 [Example 5] | 0.001 to 0.01
N#Cc1ccc(-c2ccnc3ccc(C(=O)N=C(N)N)cc23)cc1 [Example 33] | 0.01 to 0.1
NC(N)=NC(=O)c1ccc2c(F)cnc(-c3cccc(Cl)c3O)c2c1 [Example 199] | 0.01 to 0.1
Cc1nc2ccc(C(=O)N=C(N)N)cc2c(-c2ccncc2Cl)c1C [Example 127] | 0.01 to 0.1
Cc1cc(C(=O)N=C(N)N)cc2c(-c3cccc(Cl)c3Cl)ccnc12 [Example 46] | 0.001 to 0.01
Cc1cnc2ccc(C(=O)N=C(N)N)cc2c1-c1c(F)cccc1F [Example 32] | 0.001 to 0.01
